We go through three compounds from patent publication US7342011B2, “Rifamycin analogs and uses thereof” (priority 2003, dated 2008).

Common to all, as to assay type: cell-based
The subject of one assay is S. aureus. Put plainly: MIC assay, S. aureus.
The subject of the next assay is S. pneumo. Put plainly: MIC assay, S. pneumo.
In a further assay the test system is E. faecalis. Put plainly: MIC assay, E. faecalis.
A further assay deals with H. flu. Put plainly: MIC assay, H. flu.
The next assay deals with E. coli. Put plainly: MIC assay, E. coli.

Converted amounts (≈) assume the structure as drawn.

Turning to `CO[C@H]1/C=C/O[C@@]2(C)Oc3c(C)c(O)c4c(=O)c(c5oc6cc(N7CCC(C)(N(C)C)CC7)cc(O)c6nc-5c4c3C2=O)NC(=O)/C(C)=C\C=C\[C@H](C)[C@H](O)[C@@H](C)[C@@H](O)[C@@H](C)[C@H](O)[C@@H]1C` [Compound 73, 25-O-deacetyl-3′-hydroxy-5′-[4-methyl-4-N,N-dimethylamino-1-piperidinyl]benzoxazinorifamycin], in the assay with S. aureus, the “MIC (μg/mL) S. aureus” value was 0.002 µg/mL (≈ 0.00222 µM). Besides, the “MIC (μg/mL) S. pneumo.” value with S. pneumo. was 0.00025 µg/mL (≈ 0.000278 µM). For the same compound, the “MIC (μg/mL) E. faecalis” value with E. faecalis is 0.03 µg/mL (≈ 0.0334 µM). In the assay on H. flu, the “MIC (μg/mL) H. flu” value worked out at 0.12 µg/mL (≈ 0.133 µM). Also, the “MIC (μg/mL) E. coli” value against E. coli is 2 µg/mL (≈ 2.22 µM).
On to `CO[C@H]1/C=C/O[C@@]2(C)Oc3c(C)c(O)c4c(=O)c(c5oc6cc(N7CC[C@@H](N(C)C)C7)cc(O)c6nc-5c4c3C2=O)NC(=O)/C(C)=C\C=C\[C@H](C)[C@H](O)[C@@H](C)[C@@H](O)[C@@H](C)[C@H](OC(C)=O)[C@@H]1C` [Compound 75, 3′-hydroxy-5′-[(3R)-N,N-dimethylamino-1-pyrrolidinyl]benzoxazinorifamycin], for which the “MIC (μg/mL) S. aureus” value against S. aureus came out at 0.002 µg/mL (≈ 0.00219 µM). Also, the “MIC (μg/mL) S. pneumo.” value in the assay with S. pneumo. came out at 0.00012 µg/mL (≈ 0.000131 µM). The “MIC (μg/mL) E. faecalis” value in the assay on E. faecalis was 0.12 µg/mL (≈ 0.131 µM). Moreover, the “MIC (μg/mL) H. flu” value in the assay with H. flu came out at 0.25 µg/mL (≈ 0.274 µM). Moreover, in the assay on E. coli, the “MIC (μg/mL) E. coli” value came to 4 µg/mL (≈ 4.38 µM).
Take `CO[C@H]1/C=C/O[C@@]2(C)Oc3c(C)c(O)c4c(=O)c(c5sc6cc(N7CCN8CCC[C@H]8C7)ccc6nc-5c4c3C2=O)NC(=O)/C(C)=C\C=C\[C@H](C)[C@H](O)[C@@H](C)[C@@H](O)[C@@H](C)[C@H](OC(C)=O)[C@@H]1C` [Compound 76, 5′-[(8aS)octahydropyrrolo[1,2-a]pyrazin-2-yl]benzthiazinorifamycin]: in the assay on S. aureus, the “MIC (μg/mL) S. aureus” value was found to be 0.008 µg/mL (≈ 0.00865 µM). For the same compound, the “MIC (μg/mL) S. pneumo.” value in the assay with S. pneumo. was 0.00025 µg/mL (≈ 0.00027 µM). In addition, the “MIC (μg/mL) E. faecalis” value in the assay with E. faecalis is 0.5 µg/mL (≈ 0.54 µM). Further, in the assay on H. flu, the “MIC (μg/mL) H. flu” value was 0.25 µg/mL (≈ 0.27 µM). The “MIC (μg/mL) E. coli” value in the assay on E. coli was 4 µg/mL (≈ 4.32 µM).
